This data set deals with CHIKV. It is filed as cell-based, chikungunya virus.

On to “s17802 (GGAGTTAAACATAGATGTA; chemistry not given here)”, for which the Score_si3 worked out at 1.28.

Turning to “Hs_GAP43_1 (sense CCGGCTCAGCTGAGACAGAAA; chemistry not given here)”, the Score_si1 is reported as 2.5.

With “Hs_NRCAM_2 (AACGCTCATAATTAACATCAT; chemistry not given here)”, the Score_si4 worked out at 0.35.

For “Hs_KIAA0674_2 (sense CCCGGCAACATAACACTGAAA; chemistry not given here)”, the Score_si2 is listed as 1.52.

“Hs_TADA3L_2 (sense ACCGACTGGCAGGATAAGAAA; chemistry not given here) [reference compound]” came in with a Score_si1 of -1.99.

For the substance “Hs_KAZALD1_2 (sense ACAGGGCTAGGCACCAATAAA; chemistry not given here)”, the Score_si1 is 1.74.

As to “Hs_GUCY1B3_3 (sense CAAGACTTTCTTCTAGATATA; chemistry not given here) [reference compound]”, the Score_si3 is on record as -0.83.

Turning to “s16045 (GGTTTATCCACGGTAAAGA; chemistry not given here) [reference compound]”, the Score_si4 is on record as -0.44.

In turn, “s8324 (GCTGGGAAGGGATACCACA; chemistry not given here)” yielded a Score_si1 of 1.92.

Substance “Hs_NCOA1_14 (CTCCTAATATTTCGACATTAA; chemistry not given here)” came in with a Score_si1 of 2.06.

As for “Hs_MGC2803_2 (CGGGAACAAACTAGCCCTCAA; chemistry not given here)”, the Score_si1 is recorded as 2.43.

In turn, “Hs_FLJ31164_4 (sense GAGCAACTTGCTGGATGTGAA; chemistry not given here)” had a Score_si2 of 1.07.

Substance “s10956 (sense CAAGCGGATTTCTACCCTT; chemistry not given here)” returned a Score_si1 of 1.05.

The substance “Hs_RRBP1_4 (sense AAGAGATTGTAGAGAAGCTAA; chemistry not given here)” returned a Score_si3 of 1.79.

“s3112 (GGATGAGATTCTAGACTTT; chemistry not given here)”: the Score_si3 is recorded as 1.86.

“Hs_GP1BB_5 (sense ACGAGTCCTGAGGAGAGAA; chemistry not given here) [reference compound]” yielded a Score_si1 of -1.46.

“Hs_FLT4_4 (sense CGCGCTGATGTCGGAGCTCAA; chemistry not given here)” registered a Score_si1 of 1.18.

The substance “Hs_EEF1A1_1 (CTGGTTAATGATAACAATGCA; chemistry not given here)” registered a Score_si3 of 2.24.

The substance “s11586 (sense GGATAGTGTTCTTAGCAAT; chemistry not given here)” registered a Score_si4 of 0.13.

For “Hs_PD2_1 (ACCGAGGAAGAAATATACAAA; chemistry not given here)”, the Score_si4 was 1.16.

The substance “s12452 (sense GGACCAAGATGATCAGAAA; chemistry not given here)” registered a Score_si4 of 0.08.

In the case of “s27237 (sense ACACTAAAGAATTCCGGAA; chemistry not given here) [reference compound]”, the Score_si3 is -0.27.

“Hs_SULF1_3 (sense CTGGTGTTTGCGTACAGTTAA; chemistry not given here) [reference compound]” came in with a Score_si4 of -0.77.

In turn, “Hs_KIAA1012_2 (sense CAGGGTTGCTATTTACTTAAA; chemistry not given here)” returned a Score_si1 of 2.22.

For the substance “Hs_CIZ1_1 (sense CAGGTGAGGTCCAGAGATATA; chemistry not given here) [reference compound]”, the Score_si1 is -1.69.

In the case of “s16317 (GAACGAGTCCTTGAAGGTT; chemistry not given here)”, the Score_si4 came to 0.08.

For “s51653 (sense GCACCTTGCAGGATTGGAA; chemistry not given here)”, the Score_si3 is reported as 0.68.

“Hs_LIP8_2 (sense AAGCATATCTTTGAGATGGAA; chemistry not given here)” showed a Score_si1 of 2.14.

Substance “s15796 (CTACGATTCTGGTGGAATA; chemistry not given here)” had a Score_si1 of 1.5.

Regarding “Hs_WDR40A_1 (CAGCATCAATGTGATTAGTAA; chemistry not given here) [reference compound]”, the Score_si1 is on record as -2.68.

As to “Hs_TADA3L_1 (sense CTGACCGAACTGGACACTAAA; chemistry not given here) [reference compound]”, the Score_si2 is on record as -1.72.

“s194444 (sense GCTGCGTCTCCCTTCCAAA; chemistry not given here) [reference compound]” yielded a Score_si4 of -0.58.

In turn, “Hs_KRTCAP2_6 (sense CTGACCCTGAATGTTCAATAA; chemistry not given here)” registered a Score_si1 of 1.71.

“s18077 (CCTGTTCATTGATCGAACA; chemistry not given here) [reference compound]” gave a Score_si3 of -0.59.

“Hs_PHF10_5 (ATGGCAGTGTATGGAATGTAA; chemistry not given here)” had a Score_si1 of 2.93.

For “s28294 (sense CATTCTGTGGTGAAACATT; chemistry not given here)”, the Score_si1 turned out to be 1.28.

In the case of “Hs_RTN2_2 (sense GAGCTTGGATTTACACTGTAA; chemistry not given here)”, the Score_si1 worked out at 2.8.

“Hs_ZBTB24_2 (CAGCATGTGTCTGTAATTGTA; chemistry not given here)” yielded a Score_si1 of 2.57.

“s34429 (CTCCTGCCTTGAGCCCTTA; chemistry not given here)” gave a Score_si4 of 0.3.

On to “Hs_SREBF2_4 (sense AAGGCCATTGATTACATCAAA; chemistry not given here)”, for which the Score_si3 came to 1.41.

On to “s11745 (sense CACTCTCTGTAAGCATATA; chemistry not given here)”, for which the Score_si2 was determined as 1.42.

For “Hs_IRAK1_10 (sense AAGCAAGTCAGGTTTCATGTA; chemistry not given here)”, the Score_si2 was found to be 1.62.

Take “s3625 (CAGTGAAGCTAGAATCTCA; chemistry not given here)”: the Score_si4 came out at 1.54.

Turning to “s12384 (sense TCGTCCTCTTTAACCCTGA; chemistry not given here)”, the Score_si3 was 1.24.

As to “s8290 (sense GGTGCTAACCGGATAGTAT; chemistry not given here)”, the Score_si4 turned out to be 0.74.

“s195939 (sense GCGGCTGATTTATCTCTGC; chemistry not given here) [reference compound]” showed a Score_si4 of -0.22.

On to “Hs_ITGB4BP_1 (sense CTGGATCTATCATTACTGCAA; chemistry not given here)”, for which the Score_si3 was 1.14.

Regarding “Hs_RARSL_6 (sense TAGATCGAATGGACAAGTATA; chemistry not given here) [reference compound]”, the Score_si2 is listed as -1.49.

Turning to “s1907 (sense GAACTTAGCTAAATTGACT; chemistry not given here)”, the Score_si4 is 0.58.

The substance “Hs_YEATS4_3 (AAAGGGTGTTACTATCGTTAA; chemistry not given here)” displayed a Score_si3 of 0.92.

Turning to “Hs_PRSS15_2 (sense CAGCCTTATGTCGGCGTCTTT; chemistry not given here)”, the Score_si2 was 1.66.

(Values after article PMC4865845, “A human genome-wide loss-of-function screen identifies effective chikungunya antiviral drugs” (Nature Communications, 2016).)
